{
  "source": "patent US20150191469A1",
  "about": "“COMPOUNDS AND METHODS FOR TREATING HIV” (priority 2012, published 2015)",
  "data": [
    {"tested_on": "HIV", "experiment": "MT4 assay: antiviral HIV activity (cell protection, cell titer glo readout at 96 hours)", "format": "cell-based", "conditions": "Human immunodeficiency virus 1, MT4, 96 h, MT4 cells, cell titer glo readout at 96 hours, 10 point dose response; read-out: HIV MT4 Assay IC50", "summary_of_the_method": "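MT-4 cells infected with HIV, with inhibition readout by CellTiter-Glo luminescence at 96 h relative to no-compound control. Cytotoxicity measured in parallel under the same conditions. IC50 from a 10-point, 3-4-fold dilution series spanning >1000-fold, fitted with a four-parameter logistic equation.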", "units": {"IC50": "nM"}, "values": [
      {"smiles": "Cc1nc2c(cc(-c3ccnc(-c4ccc5ncccc5c4)c3)n2C)c(-c2cc(F)c3c(c2C)CCCO3)c1[C@H](OC(C)(C)C)C(=O)O", "note": "(atropisomer, axis not shown) [Example 40]", "IC50": 2.2},
      {"smiles": "Cc1nc2c(cc(-c3ccnc(N4CCCN(C5COC5)CC4)c3)n2C)c(-c2cc(F)c3c(c2C)CCCO3)c1[C@H](OC(C)(C)C)C(=O)O", "note": "(atropisomer, axis not shown) [Example 85]", "IC50": 12.7},
      {"smiles": "Cc1nc2c(cc(-c3ccnc(N4CCn5c(C)nnc5C4)c3)n2C)c(-c2cc(F)c3c(c2C)CCCO3)c1[C@H](OC(C)(C)C)C(=O)O", "note": "(atropisomer, axis not shown) [Example 79]", "IC50": 645},
      {"smiles": "Cc1nc2c(cc(C(=O)N3CCN(C(=O)C4CCCCC4)CC3)n2C)c(-c2cc(F)c3c(c2C)CCCO3)c1[C@H](OC(C)(C)C)C(=O)O", "note": "[Example 201]", "IC50": 65.7},
      {"smiles": "Cc1nc2c(cc(-c3ccnc(-c4ccc(N5CCCC5)nc4)c3)n2C)c(-c2cc(F)c3c(c2C)CCCO3)c1[C@H](OC(C)(C)C)C(=O)O", "note": "(atropisomer, axis not shown) [Example 45]", "IC50": 4.8},
      {"smiles": "Cc1nc2c(cc(-c3ccnc(N4C[C@@H]5CC[C@H]4CN(C4COC4)C5)c3)n2C)c(-c2cc(F)c3c(c2C)CCCO3)c1[C@H](OC(C)(C)C)C(=O)O", "note": "(atropisomer, axis not shown) [Example 122]", "IC50": 11.6},
      {"smiles": "Cc1nc2c(cc(-c3ccnc(C(=O)N4CCN(c5ccccc5)CC4)c3)n2C)c(-c2cc(F)c3c(c2C)CCCO3)c1[C@H](OC(C)(C)C)C(=O)O", "note": "(atropisomer, axis not shown; (M)) [Example 145]", "IC50": 45.3},
      {"smiles": "Cc1nc2c(cc(CN(C)C(=O)c3ccc4c(cnn4C)c3)n2C)c(-c2cc(F)c3c(c2C)CCCO3)c1[C@H](OC(C)(C)C)C(=O)O", "note": "[Example 296]", "IC50": 28.5},
      {"smiles": "Cc1nc2c(cc(-c3ccnc(-c4ccc5c(cnn5C)c4)c3)n2C)c(C2=CCC(C)(C)CC2)c1[C@H](OC(C)(C)C)C(=O)O", "note": "[Example 436]", "IC50": 5.9},
      {"smiles": "Cc1nc2c(cc(-c3ccnc(OC4CCN(Cc5ccccc5)CC4)c3)n2C)c(-c2cc(F)c3c(c2C)CCCO3)c1[C@H](OC(C)(C)C)C(=O)O", "note": "[Example 75]", "IC50": 100},
      {"smiles": "Cc1ccc(-c2c([C@H](OC(C)(C)C)C(=O)O)c(C)nc3c2cc(-c2ccnc(-c4ccc5c(cnn5C)c4)c2)n3C)cc1", "note": "[Example 421]", "IC50": 7.6},
      {"smiles": "Cc1nc2c(cc(-c3nc(N4CCN(C)CC4)ns3)n2C)c(-c2cc(F)c3c(c2C)CCCO3)c1[C@H](OC(C)(C)C)C(=O)O", "note": "[Example 369]", "IC50": 11.3},
      {"smiles": "Cc1nc2c(cc(-c3ccnc(N4CCN(C5CCOCC5)CC4)c3)n2C)c(-c2cc(F)c3c(c2C)CCCO3)c1[C@H](OC(C)(C)C)C(=O)O", "note": "(atropisomer, axis not shown) [Example 127]", "IC50": 3.6},
      {"smiles": "Cc1cnc(CNC(=O)c2cc3c(-c4cc(F)c5c(c4C)CCCO5)c([C@H](OC(C)(C)C)C(=O)O)c(C)nc3n2C)cn1", "note": "[Example 211]", "IC50": 121},
      {"smiles": "Cc1nc2c(cc(C(=O)Nc3ccc4c(cnn4C)c3)n2C)c(-c2cc(F)c3c(c2C)CCCO3)c1[C@H](OC(C)(C)C)C(=O)O", "note": "[Example 163]", "IC50": 43},
      {"smiles": "Cc1nc2c(cc(-c3ccnc(N4CCCN(C5(C)COC5)CC4)c3)n2C)c(-c2cc(F)c3c(c2C)CCCO3)c1[C@H](OC(C)(C)C)C(=O)O", "note": "(atropisomer, axis not shown) [Example 128]", "IC50": 10.3},
      {"smiles": "Cc1nc2c(cc(-c3ccnc(CN(C)c4ccccn4)c3)n2C)c(-c2cc(F)c3c(c2C)CCCO3)c1[C@H](OC(C)(C)C)C(=O)O", "note": "[Example 77]", "IC50": 41},
      {"smiles": "Cc1nc2c(cc(-c3nnc(N4CCN(CCN5CCOCC5)CC4)o3)n2C)c(-c2cc(F)c3c(c2C)CCCO3)c1[C@H](OC(C)(C)C)C(=O)O", "note": "[Example 340]", "IC50": 43.2},
      {"smiles": "Cc1nc2c(cc(C(=O)N3CCC(NC(=O)c4cncn4C)CC3)n2C)c(-c2cc(F)c3c(c2C)CCCO3)c1[C@H](OC(C)(C)C)C(=O)O", "note": "[Example 165]", "IC50": 50000},
      {"smiles": "Cc1nc2c(cc(C(=O)N3C[C@@H]4CC[C@H]3CN(C3COC3)C4)n2C)c(-c2cc(F)c3c(c2C)CCCO3)c1[C@H](OC(C)(C)C)C(=O)O", "note": "[Example 188]", "IC50": 86.7},
      {"smiles": "Cc1nc2c(cc(C(=O)C(=O)NCc3ccccc3)n2C)c(-c2cc(F)c3c(c2C)CCCO3)c1[C@H](OC(C)(C)C)C(=O)O", "note": "(atropisomer, axis not shown; (M)) [Example 420, (2S)(M)-2-(-2-(2-(benzylamino)-2-oxoacetyl)-4-(8-fluoro-5-methylchroman-6-yl)-1,6-dimethyl-1H-pyrrolo[2,3-b]pyridin-5-yl)-2-(tert-butoxy)acetic acid]", "IC50": 94.6},
      {"smiles": "Cc1nc2c(cc(-c3ccnc(-c4cnc5c(c4)CCCN5)c3)n2C)c(-c2cc(F)c3c(c2C)CCCO3)c1[C@H](OC(C)(C)C)C(=O)O", "note": "(atropisomer, axis not shown) [Example 72]", "IC50": 4.6},
      {"smiles": "Cc1nc2c(cc(-c3nc(N4CCC(N5CCN(C)CC5)CC4)ns3)n2C)c(-c2cc(F)c3c(c2C)CCCO3)c1[C@H](OC(C)(C)C)C(=O)O", "note": "[Example 389]", "IC50": 5.6},
      {"smiles": "Cc1nc2c(cc(C(=O)N3CCN(C4CCOCC4)CC3)n2C)c(-c2cc(F)c3c(c2C)CCCO3)c1[C@H](OC(C)(C)C)C(=O)O", "note": "[Example 225]", "IC50": 436},
      {"smiles": "Cc1nc2c(cc(CCc3ccccc3)n2C)c(-c2cc(F)c3c(c2C)CCCO3)c1[C@H](OC(C)(C)C)C(=O)O", "note": "(atropisomer, axis not shown; (M)) [Example 282, (2S)(M)-2-(tert-butoxy)-2-(-4-(8-fluoro-5-methylchroman-6-yl)-1,6-dimethyl-2-phenethyl-1H-pyrrolo[2,3-b]pyridin-5-yl)acetic acid]", "IC50": 56.8},
      {"smiles": "Cc1nc2c(cc(-c3ccnc(-c4ccnc(N5CCN(C)CC5)c4)c3)n2C)c(-c2cc(F)c3c(c2C)CCCO3)c1[C@H](OC(C)(C)C)C(=O)O", "note": "(atropisomer, axis not shown) [Example 30]", "IC50": 4.1},
      {"smiles": "Cc1nc2c(cc(-c3ccnc(-c4ccc5c(c4)ncn5C)c3)n2C)c(-c2cc(F)c3c(c2C)CCCO3)c1[C@H](OC(C)(C)C)C(=O)O", "note": "[Example 51]", "IC50": 4},
      {"smiles": "Cc1nc2c(cc(-c3cc(NCCC(C)(C)C)ncn3)n2C)c(-c2cc(F)c3c(c2C)CCCO3)c1[C@H](OC(C)(C)C)C(=O)O", "note": "[Example 366]", "IC50": 15.2},
      {"smiles": "Cc1nc2c(cc(-c3nnc(N4CCCOCC4)o3)n2C)c(-c2cc(F)c3c(c2C)CCCO3)c1[C@H](OC(C)(C)C)C(=O)O", "note": "[Example 350]", "IC50": 11.9},
      {"smiles": "Cc1nc2c(cc(-c3nnc(N4CC[C@H](N(C)C)C4)o3)n2C)c(-c2cc(F)c3c(c2C)CCCO3)c1[C@H](OC(C)(C)C)C(=O)O", "note": "[Example 332]", "IC50": 23.8},
      {"smiles": "Cc1nc2c(cc(-c3nc(N4CC[C@@H](N(C)C)C4)ns3)n2C)c(-c2cc(F)c3c(c2C)CCCO3)c1[C@H](OC(C)(C)C)C(=O)O", "note": "[Example 401]", "IC50": 12.8},
      {"smiles": "Cc1nc2c(cc(-c3ccnc(N4CCN(C(=O)c5ccccc5)CC4)c3)n2C)c(-c2cc(F)c3c(c2C)CCCO3)c1[C@H](OC(C)(C)C)C(=O)O", "note": "(atropisomer, axis not shown) [Example 82]", "IC50": 47.7},
      {"smiles": "Cc1nc2c(cc(-c3ccnc(N4CCCN(C(=O)C5CCCC5)CC4)c3)n2C)c(-c2cc(F)c3c(c2C)CCCO3)c1[C@H](OC(C)(C)C)C(=O)O", "note": "(atropisomer, axis not shown) [Example 101]", "IC50": 67.4},
      {"smiles": "Cc1nc2c(cc(C(=O)NCc3ccncc3)n2C)c(-c2cc(F)c3c(c2C)CCCO3)c1[C@H](OC(C)(C)C)C(=O)O", "note": "[Example 274]", "IC50": 208},
      {"smiles": "Cc1nc2c(cc(C(=O)NCCN3CCOCC3)n2C)c(-c2cc(F)c3c(c2C)CCCO3)c1[C@H](OC(C)(C)C)C(=O)O", "note": "[Example 240]", "IC50": 370},
      {"smiles": "Cc1nc2c(cc(C(=O)N3CCN(c4nccs4)CC3)n2C)c(-c2cc(F)c3c(c2C)CCCO3)c1[C@H](OC(C)(C)C)C(=O)O", "note": "[Example 208]", "IC50": 39.6},
      {"smiles": "Cc1noc(C)c1-c1cc(-c2cc3c(-c4cc(F)c5c(c4C)CCCO5)c([C@H](OC(C)(C)C)C(=O)O)c(C)nc3n2C)ccn1", "note": "(atropisomer, axis not shown) [Example 43]", "IC50": 72.9},
      {"smiles": "Cc1nc2c(cc(-c3nnc(N(C)CCN4CCOCC4)o3)n2C)c(-c2cc(F)c3c(c2C)CCCO3)c1[C@H](OC(C)(C)C)C(=O)O", "note": "[Example 343]", "IC50": 10.6},
      {"smiles": "Cc1nc2c(cc(-c3ccnc(N4CCCN(C5CCOCC5)CC4)c3)n2C)c(-c2cc(F)c3c(c2C)CCCO3)c1[C@H](OC(C)(C)C)C(=O)O", "note": "(atropisomer, axis not shown) [Example 113]", "IC50": 20},
      {"smiles": "Cc1nc2c(cc(CN3CCC[C@H]3C(=O)Nc3ccc4c(cnn4C)c3)n2C)c(-c2cc(F)c3c(c2C)CCCO3)c1[C@H](OC(C)(C)C)C(=O)O", "note": "[Example 292]", "IC50": 41.3},
      {"smiles": "Cc1nc2c(cc(C(=O)N3CCCN(C4COC4)CC3)n2C)c(-c2cc(F)c3c(c2C)CCCO3)c1[C@H](OC(C)(C)C)C(=O)O", "note": "[Example 162]", "IC50": 3650},
      {"smiles": "COCCS(=O)(=O)N1CCCN(c2cc(-c3cc4c(-c5cc(F)c6c(c5C)CCCO6)c([C@H](OC(C)(C)C)C(=O)O)c(C)nc4n3C)ccn2)CC1", "note": "(atropisomer, axis not shown) [Example 119]", "IC50": 20},
      {"smiles": "Cc1nc2c(cc(-c3ccnc(N4CCN5CCC4C5)c3)n2C)c(-c2cc(F)c3c(c2C)CCCO3)c1[C@H](OC(C)(C)C)C(=O)O", "note": "(stereo partly drawn) [Example 123]", "IC50": 164},
      {"smiles": "Cc1nc2c(cc(C(=O)N3CCc4ccc(S(=O)(=O)NC(C)C)cc4C3)n2C)c(-c2cc(F)c3c(c2C)CCCO3)c1[C@H](OC(C)(C)C)C(=O)O", "note": "[Example 167]", "IC50": 357},
      {"smiles": "Cc1nc2c(cc(-c3ccnc(-c4ccc5c(cnn5C)c4)c3)n2C)c(-c2ccc3c(c2Cl)NCCO3)c1[C@H](OC(C)(C)C)C(=O)O", "note": "[Example 422]", "IC50": 1.5},
      {"smiles": "Cc1nc2c(cc(-c3nnc(NCCN4CCN(C)CC4)o3)n2C)c(-c2cc(F)c3c(c2C)CCCO3)c1[C@H](OC(C)(C)C)C(=O)O", "note": "[Example 341]", "IC50": 1250},
      {"smiles": "Cc1nc2c(cc(-c3nc(N4CCN(S(=O)(=O)C5CCOCC5)CC4)ns3)n2C)c(-c2cc(F)c3c(c2C)CCCO3)c1[C@H](OC(C)(C)C)C(=O)O", "note": "[Example 393]", "IC50": 4.2},
      {"smiles": "Cc1nc2c(cc(-c3ccnc(N4CCCN(C5COC5)CC4)c3)n2C)c(-c2ccc3c(c2)CCCO3)c1[C@H](OC(C)(C)C)C(=O)O", "note": "[Example 429]", "IC50": 75}
    ]}
  ]
}
